Data set [1] deals with CHOK1 cell lines Fth1-WT and Fth1-KO transfected with pCDNA3.1-CMV-cgFth1-p2A-EGFP. Description: Screening efficiency of transfected cells under iron ion-induced ferroptosis (Celigo Image Cytometer). The data set is classed as cell-based, Chinese hamster. The procedure:
After 24 hours of adherent culture in F12 medium (Ham's F-12 Nutrient Mix, Gibco) containing 10% FBS, the transfection of vector (pCDNA3.1-CMV-cgFth1-p2A-EGFP) was carried out with Lipofectamine 3000 (Thermo Fisher Scientific Inc.) to promote the overexpression of FTH1 gene. 24 hours after the DNA transfection of the vectors, 125 μM ferrous sulfate (FeSO4) was added to the cell culture broth, and at the same time different doses of ferroptosis inducers FINO2 (0 μM to 20 μM) were added to induce ferroptosis. After 3 days (72 hours) of action, the Celigo Image Cytometer (Nexcelom) was used to analyze the cell morphology, viability, cell count, fluorescent cell count, and fluorescence quantification, thereby estimating the screening efficiency.

Another data set deals with HEK293T cell line. Particulars: 125 μM FeSO4, 72 hours, cells transfected with pCDNA3.1-CMV-cgFth1-p2A-EGFP vs Mock vector. The procedure:
(§1) After 24 hours of adherent culture in F12 medium (Ham's F-12 Nutrient Mix, Gibco) containing 10% FBS, the transfection of vectors (pCDNA3.1-CMV-cgFth1-p2A-EGFP and pCDNA3.1-CMV-p2A-EGFP_Mock, which served as a blank control group) were carried out with Lipofectamine 3000 (Thermo Fisher Scientific Inc.) to promote the overexpression of FTH1 gene. 24 hours after the DNA transfection of the vectors, 125 μM ferrous sulfate (FeSO4) was added to the cell culture broth, and at the same time different doses of ferroptosis inducers FINO2 (0 μM to 20 μM) were added to induce ferroptosis. After 3 days (72 hours) of action, the Celigo Image Cytometer (Nexcelom) was used to analyze the fluorescence cell count and fluorescence quantification, thereby estimating the screening efficiency.

The test system of a further data set is VERO cell line. Particulars: 125 μM FeSO4, 72 hours, cells transfected with pCDNA3.1-CMV-cgFth1-p2A-EGFP vs Mock vector. How it is done: as §1
Data set [2] relates to CHOK1 cell lines Fth1_WT and Fth1_KO.
Data set [3] concerns SKBR3 breast cancer cells rich in HER2 antigen. Description: ADCC biological activity reporter gene assay (Jurkat-hFcγRIIIa-NFAT effector cells, luciferase). The conditions noted are these: compared with the validated purified Anti-HER2 IgG1 (h4D5) recombinant antibody protein; 24 hours of reaction. The data set is classed as cell-based. How it is done:
Jurkat-hFcγRIIIa-NFAT gene transgenic cells was used as effector cells and SKBR3 breast cancer cells rich in HER2 antigen was used as target cells in ADCC biological activity reporter gene detection system (Promega, #G9790).
First, 100 μl of SKBR3 cells with a cell density of 10^5/ml were added to the 96-well culture plate, placed at 37° C. for overnight culture to allow the cells to adhere and grow, the supernatant was removed the next day, and 25 μl of serially diluted recombinant antibodies prepared in […] medium containing 0.5% fetal bovine serum were added. Next, 25 μl of lurkat-hFcγRIIIa-NFAT effector cells with a cell density of 6×10^6/ml were added.
In general terms: In a reporter assay the amount or activity of a reporter protein is the signal.

In data set [4] the test system is CHOK1 cell lines Fth1_WT and Fth1_KO. Description: Cytotoxicity test of screening medium formulations (AlamarBlue cell viability). The conditions noted are these: FINO2 and fatty acid PA together, without the addition of iron ions FeSO4. For orientation: The colour change of resazurin is a common sign of viable cells or microbes.

Like-named read-outs stand apart in the source and are kept apart here.

Take `CC1(CCO)CC2(CCC(C(C)(C)C)CC2)OO1` (centres unmarked) [FINO2]: the “relation of increased dose to overall cell viability” value in data set [1] (FINO2 0 μM to 20 μM with 125 μM FeSO4, 72 hours) was “negatively correlated with overall cell viability”. Moreover, the cell screening rate in data set [1] (high dose of ferroptosis inducer (>15 μM), 125 μM FeSO4, 72 hours) is given as 100%. Further, the “concentration producing significant screening effects” value came out at 1.25 µM in the data set on HEK293T cell line and 5 µM in the data set on VERO cell line. Moreover, the cytotoxicity entry in data set [2] is “did not cause cytotoxicity”.

As for “V2: Anti-HER2 IgG1 (h4D5) recombinant antibody produced by expression vector pBudCE4.1-CMV-GOI1-SV40-cgFth1-EF1α-GOI2”, the ADCC effect result in data set [3] was “could obviously induce ADCC”.

In the case of “V3: Anti-HER2 IgG1 (h4D5) recombinant antibody from cell line C8, vector pcDNA3.1-CMV-GOI1-furin-p2A-GOI2-IRES-cgFth1, without adding iron ions”, in data set [3], the ADCC effect entry was “could obviously induce ADCC”.

For the compound `CCCCCCCCCCCCCCCC(=O)O` [PA, Palmitic acid], the cytotoxicity entry in data set [4] is on record as “did not cause cytotoxicity”.

The values are drawn from patent publication US12275953B2, “Methods for screening host cells expressing target proteins” (Industrial Technology Research Institute, priority 2020, dated 2025).
